For assay [1], the target named is T1, human B1R (bradykinin receptor 1) (Homo sapiens, UniProt P46663).
T1 construct: expressed in transfected cells; host or cells: CHO K1 cells
T1 sequence (P46663 1-353): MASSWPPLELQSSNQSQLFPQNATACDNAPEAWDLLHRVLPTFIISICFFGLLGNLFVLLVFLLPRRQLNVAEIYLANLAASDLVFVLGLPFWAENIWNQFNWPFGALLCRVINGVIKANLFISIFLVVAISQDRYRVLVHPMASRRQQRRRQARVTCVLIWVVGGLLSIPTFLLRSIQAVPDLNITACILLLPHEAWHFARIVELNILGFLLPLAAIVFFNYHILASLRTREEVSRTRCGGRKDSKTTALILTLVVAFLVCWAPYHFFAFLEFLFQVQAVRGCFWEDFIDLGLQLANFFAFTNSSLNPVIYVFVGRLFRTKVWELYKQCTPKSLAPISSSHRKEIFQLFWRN
The assay can be described thus: FLIPR Ca2+ assay (Fluo-4) on CHO K1 cells stably transfected with the human B1R gene (hB1R cells): % inhibition at 10 μM / IC50, agonist Lys-Des-Arg9-bradykinin. Type of assay: cell-based. The note with it: for inhibition at 10 µM: CHO-K1, human B1R. A digest of the protocol:
(§1)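 Cells were Fluo-4-loaded, then test compound (10 μM, or a concentration series for IC50) was preincubated 10–20 min before agonist challenge at EC80: Lys-Des-Arg9-bradykinin for hB1R, Des-Arg9-bradykinin for rB1R. Peak Ca2+ fluorescence (ex 488/em 540 nm) gave % inhibition versus maximal achievable inhibition.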

In assay [2] the target is T2, rat B1R (bradykinin receptor 1) (Rattus norvegicus, UniProt P97583).
T2 construct: expressed in transfected cells; host or cells: CHO K1 cells
T2 sequence (P97583 1-337): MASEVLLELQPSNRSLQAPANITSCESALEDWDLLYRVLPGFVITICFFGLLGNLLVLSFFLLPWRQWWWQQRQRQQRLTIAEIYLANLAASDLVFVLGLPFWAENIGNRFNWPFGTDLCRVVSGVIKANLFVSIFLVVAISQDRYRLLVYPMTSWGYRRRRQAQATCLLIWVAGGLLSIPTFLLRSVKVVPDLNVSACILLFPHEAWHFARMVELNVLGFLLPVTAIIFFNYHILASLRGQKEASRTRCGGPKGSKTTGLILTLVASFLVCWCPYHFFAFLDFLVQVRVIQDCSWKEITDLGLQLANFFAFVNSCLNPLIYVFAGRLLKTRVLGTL
The assay can be described thus: FLIPR Ca2+ assay (Fluo-4) on CHO K1 cells stably transfected with the B1R gene of the rat (rB1R cells): % inhibition at 10 μM / IC50, agonist Des-Arg9-bradykinin. Type of assay: cell-based. The note with it: for inhibition at 10 µM: CHO-K1, rat B1R. Summed up: as §1

The source of these data is patent US8455475B2 (Gruenenthal GmbH, priority 2009, dated 2013).

Each structure is given as a SMILES string.

For the compound `CC1(C)CC(NC(=O)C(c2ccccc2)c2ccccc2Cl)c2cc(C(=O)N3CCC4(CC3)CCN(c3ccncc3)CC4)ccc21` (centres unmarked) [Ind_CC-056, 2-(2-chlorophenyl)-N-[3,3-dimethyl-6-(9-pyridin-4-yl-3,9-diazaspiro[5.5]-undecane-3-carbonyl)-1,2-dihydro-inden-1-yl]-2-phenyl-acetamide], the inhibition (usually the change of the read-out against control, counted positive when it falls) at 10 µM in assay [1] was 41%; in assay [2], 94%.

On to `CC1(C)CC(NC(=O)Nc2ccc(Cl)c(Cl)c2)c2cc(C(=O)N3CCC4(CC3)CCN(c3ccncc3)CC4)ccc21` (centres unmarked) [Ind_CC-057], for which the “% Inhibition (human B1R) at 10 μM” value in assay [1] is given as 35%. Moreover, the “% Inhibition (rat B1R) at 10 μM” value in assay [2] turned out to be 80%.

For the compound `CC1(C)CC(NC(=O)c2ccccc2C(F)(F)F)c2cc(C(=O)N3CCC4(CC3)CCN(c3ccncc3)CC4)ccc21` (centres unmarked) [Ind_CC-058, N-[3,3-dimethyl-6-(9-pyridin-4-yl-3,9-diazaspiro[5.5]undecane-3-carbonyl)-1,2-dihydro-inden-1-yl]-2-(trifluoromethyl)-benzamide], the inhibition at 10 µM turned out to be 100% in assay [1] and 101% in assay [2].

For `CC1(C)CC(NC(=O)c2ccc(Cl)cc2Cl)c2cc(C(=O)N3CCC4(CC3)CCN(c3ccncc3)CC4)ccc21` (centres unmarked) [Ind_CC-059, 2,4-dichloro-N-[3,3-dimethyl-6-(9-pyridin-4-yl-3,9-diazaspiro[5.5]undecane-3-carbonyl)-1,2-dihydro-inden-1-yl]-benzamide], the inhibition at 10 µM in assay [1] was found to be 100%; in assay [2], 102%.

In the case of `CC1(C)CC(NC(=O)/C=C/c2ccccc2Cl)c2cc(C(=O)N3CCC4(CC3)CCN(c3ccncc3)CC4)ccc21` (centres unmarked) [Ind_CC-060, (E)-3-(2-chlorophenyl)-N-[3,3-dimethyl-6-(9-pyridin-4-yl-3,9-diazaspiro[5.5]undecane-3-carbonyl)-1,2-dihydro-inden-1-yl]-acrylamide], the inhibition at 10 µM in assay [1] was determined as 93%; in assay [2] it was 94%.

With `CC1(C)CC(NC(=O)NCc2ccccc2Cl)c2cc(C(=O)N3CCC4(CC3)CCN(c3ccncc3)CC4)ccc21` (centres unmarked) [Ind_CC-061, 1-[(2-chlorophenyl)-methyl]-3-[3,3-dimethyl-6-(9-pyridin-4-yl-3,9-diazaspiro[5.5]undecane-3-carbonyl)-1,2-dihydro-inden-1-yl]-urea], the figures for the inhibition at 10 µM in assay [1] and in assay [2] were 100% and 103%, respectively.

Consider `CC1(C)Cc2ccc(C(=O)N3CCC4(CC3)CCN(c3ccncc3)CC4)cc2C1NC(=O)c1ccccc1C(F)(F)F` (centres unmarked) [Ind_CC-064, N-[2,2-dimethyl-6-(9-pyridin-4-yl-3,9-diazaspiro[5.5]undecane-3-carbonyl)-1,3-dihydro-inden-1-yl]-2-(trifluoromethyl)-benzamide], for which the inhibition at 10 µM in assay [1] is 95%; in assay [2], 101%.

With `CC1(C)Cc2ccc(C(=O)N3CCC4(CC3)CCN(c3ccncc3)CC4)cc2C1NC(=O)c1sccc1Cl` (centres unmarked) [Ind_CC-065, 3-chloro-N-[2,2-dimethyl-6-(9-pyridin-4-yl-3,9-diazaspiro[5.5]undecane-3-carbonyl)-1,3-dihydro-inden-1-yl]-thiophene-2-carboxylic acid amide], the figures for the inhibition at 10 µM in assay [1] and in assay [2] were 94% and 98%, respectively.

In the case of `CC1(C)Cc2ccc(C(=O)N3CCC4(CC3)CCN(c3ccncc3)CC4)cc2C1NC(=O)c1ccc(Cl)s1` (centres unmarked) [Ind_CC-066, 5-chloro-N-[2,2-dimethyl-6-(9-pyridin-4-yl-3,9-diazaspiro[5.5]undecane-3-carbonyl)-1,3-dihydro-inden-1-yl]-thiophene-2-carboxylic acid amide], the figures for the inhibition at 10 µM in assay [1] and in assay [2] were 82% and 98%, respectively.

As for `CC1(C)Cc2ccc(C(=O)N3CCC4(CC3)CCN(c3ccncc3)CC4)cc2C1NC(=O)c1ccc(Cl)cc1Cl` (centres unmarked) [Ind_CC-067, 2,4-dichloro-N-[2,2-dimethyl-6-(9-pyridin-4-yl-3,9-diazaspiro[5.5]undecane-3-carbonyl)-1,3-dihydro-inden-1-yl]-benzamide], the values for the inhibition at 10 µM in assay [1] and in assay [2] were 94% and 101%, respectively.

Consider `O=C(NC1CCc2ccc(C(=O)N3CCC4(CCN(c5ccncc5)CC4)C3)cc21)c1ccccc1C(F)(F)F` (centres unmarked) [Ind_CC-081, N-[6-(8-pyridin-4-yl-3,8-diazaspiro[4.5]decane-3-carbonyl)-2,3-dihydro-1H-inden-1-yl]-2-(trifluoromethyl)-benzamide], for which the inhibition at 10 µM in assay [1] is 99%; in assay [2], 101%.

On to `O=C(NC1CCc2ccc(C(=O)N3CCC4(CCN(c5ccncc5)CC4)C3)cc21)C(c1ccccc1)c1ccccc1Cl` (centres unmarked) [Ind_CC-082, 2-(2-chlorophenyl)-2-phenyl-N-[6-(8-pyridin-4-yl-3,8-diazaspiro[4.5]decane-3-carbonyl)-2,3-dihydro-1H-inden-1-yl]-acetamide], for which the inhibition at 10 µM in assay [1] was 100%; in assay [2] it was 101%.

As to `O=C(/C=C/c1ccccc1Cl)NC1CCc2ccc(C(=O)N3CCC4(CCN(c5ccncc5)CC4)C3)cc21` (centres unmarked) [Ind_CC-083, (E)-3-(2-chlorophenyl)-N-[6-(8-pyridin-4-yl-2,8-diazaspiro[4.5]decane-2-carbonyl)-2,3-dihydro-1H-inden-1-yl]-acrylamide], the inhibition at 10 µM came out at 90% in assay [1] and 85% in assay [2].

`O=C(NC1CCc2ccc(C(=O)N3CCC4(CCN(c5ccncc5)CC4)C3)cc21)c1ccccn1` (centres unmarked) [Ind_CC-084, N-[6-(8-pyridin-4-yl-3,8-diazaspiro[4.5]decane-3-carbonyl)-2,3-dihydro-1H-inden-1-yl]-pyridine-2-carboxylic acid amide]: the inhibition at 10 µM in assay [1] was 99%; in assay [2], 100%.

As to `O=C(Nc1ccc(Cl)c(Cl)c1)NC1CCc2ccc(C(=O)N3CCC4(CCN(c5ccncc5)CC4)C3)cc21` (centres unmarked) [Ind_CC-085], in assay [1], the “% Inhibition (human B1R) at 10 μM” value is 91%. Besides, the “% Inhibition (rat B1R) at 10 μM” value in assay [2] came out at 77%.

In the case of `O=C(NCc1ccccc1Cl)NC1CCc2ccc(C(=O)N3CCC4(CCN(c5ccncc5)CC4)C3)cc21` (centres unmarked) [Ind_CC-086, 1-[(2-chlorophenyl)-methyl]-3-[6-(8-pyridin-4-yl-2,8-diazaspiro[4.5]decane-2-carbonyl)-2,3-dihydro-1H-inden-1-yl]-urea], the results for the inhibition at 10 µM in assay [1] and in assay [2] were 100% and 99%, respectively.

Turning to `COc1cc(C)c(C(=O)NC2CCc3ccc(C(=O)N4CCC5(CC4)CCN(c4cccnc4)CC5)cc32)c(C)c1` (centres unmarked) [Ind_CC-090, 4-methoxy-2,6-dimethyl-N-[6-(9-pyridin-3-yl-3,9-diazaspiro[5.5]undecane-3-carbonyl)-2,3-dihydro-1H-inden-1-yl]-benzamide], the inhibition at 10 µM in assay [1] was found to be 42%; in assay [2], 100%.

For the compound `COc1cc(C)c(C(=O)NC2CCc3ccc(C(=O)N4CCC5(CC4)CCN(c4ccc(F)cc4)CC5)cc32)c(C)c1` (centres unmarked) [Ind_CC-091, N-[6-[9-(4-fluorophenyl)-3,9-diazaspiro[5.5]undecane-3-carbonyl]-2,3-dihydro-1H-inden-1-yl]-4-methoxy-2,6-dimethyl-benzamide], the values for the inhibition at 10 µM in assay [1] and in assay [2] were 24% and 50%, respectively.

With `COc1cc(C)c(C(=O)NC2CCc3ccc(C(=O)N4CCC5(CCN(Cc6ccncc6)CC5)CC4)cc32)c(C)c1` (centres unmarked) [Ind_CC-092, 4-methoxy-2,6-dimethyl-N-[6-[9-(pyridin-4-yl-methyl)-3,9-diazaspiro[5.5]undecane-3-carbonyl]-2,3-dihydro-1H-inden-1-yl]-benzamide], the inhibition at 10 µM in assay [1] was determined as 78%; in assay [2] it was 101%.

For the compound `COc1cc(C)c(C(=O)NC2CCc3ccc(C(=O)N4CCC5(CC4)CCC(c4ccc(F)cc4)(N(C)C)CC5)cc32)c(C)c1` (centres unmarked) [Ind_CC-093, N-[6-[9-dimethylamino-9-(4-fluorophenyl)-3-azaspiro[5.5]undecane-3-carbonyl]-2,3-dihydro-1H-inden-1-yl]-4-methoxy-2,6-dimethyl-benzamide], the inhibition at 10 µM is 34% in assay [1] and 74% in assay [2].

`COc1cc(C)c(C(=O)NC2CCc3ccc(C(=O)N4CCC5(CC4)CCN(c4ccncc4)C5)cc32)c(C)c1` (centres unmarked) [Ind_CC-094, 4-methoxy-2,6-dimethyl-N-[6-(2-pyridin-4-yl-2,8-diazaspiro[4.5]decane-8-carbonyl)-2,3-dihydro-1H-inden-1-yl]-benzamide]: the results for the inhibition at 10 µM in assay [1] and in assay [2] were 42% and 65%, respectively.

As to `O=C(NC1CCc2ccc(C(=O)N3CCC4(CC3)CCN(c3ccncc3)CC4)cc21)c1ccccc1Cl` (centres unmarked) [Ind_CC-095, 2-chloro-N-[6-(9-pyridin-4-yl-3,9-diazaspiro[5.5]undecane-3-carbonyl)-2,3-dihydro-1H-inden-1-yl]-benzamide], in assay [1] (10 µM), the “% Inhibition (human B1R) at 10 μM” value is reported as 99%. Moreover, the “% Inhibition (rat B1R) at 10 μM” value in assay [2] (10 µM) was found to be 99%.
